Data set [1] can be described thus: Inhibition of mitochondrial Cytochrome c Oxidase. As to conditions: concentration not given here.
A short description of data set [2]: Partition coefficient (logP). The following applies: octanol/water. The class given is physicochemical.
A short description of data set [3]: (§1) The rate of hydrolysis as a function of time. It counts as ADME.
Data set [4] is described as follows: as §1. It counts as functional.
The subject of data set [5] is R3230AC. Put plainly: Cell viability was measured against R3230AC rat mammary adenocarcinoma cells at 10 uM concentration. It counts as functional.

One may read the inhibition as how much of the control response was suppressed. As usually defined, the logP is the decadic logarithm of the partition coefficient of the neutral form, usually between octanol and water. A higher logP goes with a more lipophilic compound. For `CN(C)c1ccc(-c2cc(-c3ccc(N(C)C)cc3)[s+]c(-c3ccc(N(C)C)cc3)c2)cc1.[Cl-]`, the inhibition in data set [1] was 0.82%. In data set [2], this compound displayed a logP of 2.2. For the same compound, in data set [3], the k1 is 0.0001 s⁻¹ and the k2 turned out to be 0.000022 s⁻¹.

In data set [4], `CN(C)c1ccc(-c2cc(-c3ccc(N(C)C)cc3)[te+]c(-c3ccc(N(C)C)cc3)c2)cc1.[Cl-]` had a k1 of 0.00024 s⁻¹ and a k2 of 1.1e-05 s⁻¹. Further, the Cell viability in data set [5] is listed as about 75%. The inhibition in data set [1] was found to be 0.38%. In data set [2], this compound showed a log partition coefficient (logP) of 2.3.

With `CN(C)c1ccc(-c2cc(-c3ccc(N(C)C)cc3)[se+]c(-c3ccc(N(C)C)cc3)c2)cc1`, in data set [4], the k1 stood at 0.00024 s⁻¹ and the k2 was 1.7e-05 s⁻¹. The inhibition in data set [1] was determined as 0.78%. This compound yielded a logP in data set [2] of 1.7.
